Data from ChEMBL document CHEMBL3875161, “Thiazolidin-4-ones from 4-(methylthio)benzaldehyde and 4-(methylsulfonyl)benzaldehyde: Synthesis, antiglioma activity and cytotoxicity” (Eur J Med Chem, 2016).
Calls of active or inactive are those of the source. No cut-off for these calls is given here.

Columns and labels:
[1] = species: Rattus norvegicus; assay: Cytotoxicity against Wistar rat primary astrocytes assessed as inhibition of cell viability at 250 uM after 72 hrs by MTT assay; type: toxicity; conditions: astrocyte
[2] = species: Rattus norvegicus; assay: Cytotoxicity against Wistar rat primary astrocytes assessed as inhibition of cell viability at 100 uM after 72 hrs by MTT assay; type: toxicity; conditions: astrocyte
[3] = Cytotoxicity against Wistar rat C6 cells assessed as decrease in cell viability at 100 uM after 48 hrs by MTT assay relative to control; type: functional
[4] = Cytotoxicity against Wistar rat C6 cells assessed as decrease in cell viability at 100 uM after 72 hrs by MTT assay relative to control; type: functional
[5] = tested on: C6; assay: Induction of necrosis in Wistar rat C6 cells at 50 to 100 uM after 72 hrs by propidium iodide staining based fluorescence microscopic analysis; type: functional, cell-based
[6] = tested on: C6; assay: Cytotoxicity against Wistar rat C6 cells assessed as inhibition of cell viability at 25 uM after 48 hrs by MTT assay; type: functional, cell-based
[7] = tested on: C6; assay: Cytotoxicity against Wistar rat C6 cells assessed as inhibition of cell viability at 25 uM after 72 hrs by MTT assay; type: functional, cell-based
[8] = tested on: C6; assay: Induction of necrosis in Wistar rat C6 cells assessed as lowering of cell density at 50 to 100 uM; type: functional, cell-based
[9] = tested on: C6; assay: Induction of necrosis in Wistar rat C6 cells assessed as change in cell morphology at 50 to 100 uM; type: functional, cell-based
[10] = tested on: C6; assay: Cytotoxicity against Wistar rat C6 cells assessed as inhibition of cell viability at 5 uM after 72 hrs by MTT assay; type: functional, cell-based
[11] = tested on: C6; assay: Cytotoxicity against Wistar rat C6 cells assessed as inhibition of cell viability at 50 uM after 48 hrs by MTT assay; type: functional, cell-based
[12] = tested on: C6; assay: Cytotoxicity against Wistar rat C6 cells assessed as inhibition of cell viability at 50 uM after 72 hrs by MTT assay; type: functional, cell-based

Row | Compound | Activity [1] | Activity [2] | Activity [3] [%] | Activity [4] [%] | further results
1 | CCN(CC)CCCN1C(=O)CSC1c1ccc(S(C)(=O)=O)cc1 (stereo not drawn) | Toxic | Non-Toxic |  |  | 
2 | CS(=O)(=O)c1ccc(C2SCC(=O)N2CCCN2CCCCC2)cc1 (stereo not drawn) | Non-Toxic | Non-Toxic |  |  | 
3 | CS(=O)(=O)c1ccc(C2SCC(=O)N2Cc2ccccn2)cc1 (stereo not drawn) | Non-Toxic | Non-Toxic | 47.2 | 77 | Activity [5]: Active; inhibition [6]: Active; inhibition [7]: Active; Activity [8]: Active; Activity [9]: Active
4 | CSc1ccc(C2SCC(=O)N2CCCN2CCCCC2)cc1 (stereo not drawn) | Toxic | Non-Toxic | 52.2 | 78 | Activity [5]: Active; inhibition [10]: Active; Activity [8]: Active; Activity [9]: Active
5 | CSc1ccc(C2SCC(=O)N2Cc2ccccn2)cc1 (stereo not drawn) | Non-Toxic | Non-Toxic | 48 | 75 | Activity [5]: Active; inhibition [10]: Active; Activity [8]: Active; Activity [9]: Active
6 | CS(=O)(=O)c1ccc(C2SCC(=O)N2CCN2CCCCC2)cc1 (stereo not drawn) | Non-Toxic | Non-Toxic |  |  | 
7 | CSc1ccc(N2C(=O)CSC2c2ccc(S(C)(=O)=O)cc2)cc1 (stereo not drawn) | Non-Toxic | Non-Toxic |  |  | 
8 | CSc1ccc(C2SCC(=O)N2c2ccc3c(c2)OCO3)cc1 (stereo not drawn) | Non-Toxic | Non-Toxic | 61.2 | 81.7 | Activity [5]: Active; inhibition [11]: Active; inhibition [12]: Active; Activity [8]: Active; Activity [9]: Active
9 | CSc1ccc(C2SCC(=O)N2CCN2CCCCC2)cc1 (stereo not drawn) | Toxic | Non-Toxic |  | 61 | 
10 | Cn1nnc2c(C(N)=O)ncn2c1=O [TEMOZOLOMIDE] |  |  | 42.3 | 39.7 | 
11 | CSc1ccc(C2SCC(=O)N2c2ccc(SC)cc2)cc1 (stereo not drawn) | Non-Toxic | Non-Toxic |  |  | 
12 | CSc1ccc(C2SCC(=O)N2c2ccccn2)cc1 (stereo not drawn) | Non-Toxic | Non-Toxic |  |  | 
13 | CCN(CC)CCCN1C(=O)CSC1c1ccc(SC)cc1 (stereo not drawn) | Toxic | Non-Toxic |  | 67.5 | 
14 | CS(=O)(=O)c1ccc(C2SCC(=O)N2c2ccccn2)cc1 (stereo not drawn) | Non-Toxic | Non-Toxic |  |  | 
15 | CS(=O)(=O)c1ccc(C2SCC(=O)N2c2ccc3c(c2)OCO3)cc1 (stereo not drawn) | Non-Toxic | Non-Toxic |  |  | 
